How the values were obtained:
[1] = tested on: HCV replicon (Clone A cells, Huh7, subgenomic hepatits C virus RNA); assay: HCV Neo screening assay (HCV replicon, NPTII ELISA); type: cell-based, hepatitis C virus; conditions: for EC50 / inhibition at 25 µM: Hepatitis C virus, Huh-7; for EC50: Secondary Data, HCV; for inhibition at 25 µM: primary screening, 25 μM final concentration, 24 hours, percent inhibition of viral replication, read-out: HCV Inh; for HCV TI: therapeutic index CC50/EC50, HCV
RSV minigenome = assay: RSV minigenome-dependent β-galactosidase expression assay (RSV β-Gal); type: cell-based, respiratory syncytial virus; conditions: for EC50 / inhibition at 25 µM: human respiratory syncytial virus; for EC50: Secondary Data, RSV, read-out: RSV EC50; for inhibition at 25 µM: primary screening, 25 μM final concentration, 24 hours, percent inhibition of viral replication, read-out: RSV Inh; for RSV TI: therapeutic index CC50/EC50, RSV
WNV (WN-hRuPac cells) = assay: WNV antiviral activity, WN-hRuPac cells, Renilla luciferase; type: cell-based, West Nile virus; conditions: for EC50 / inhibition at 25 µM: West Nile virus; for EC50: Secondary Data, WNV, read-out: WNV EC50; for inhibition at 25 µM: primary screening, 25 μM final concentration, 24 hours, percent inhibition of viral replication, read-out: WNV Inh; for WNV TI: therapeutic index CC50/EC50, WNV
YFV (YF-hRuPac cells) = assay: microbe, parasite or virus in culture; type: cell-based, yellow fever virus; conditions: for inhibition at 25 µM / EC50: Yellow fever virus; for inhibition at 25 µM: 24 h, read-out: YFV Inh; for EC50: read-out: YFV EC50
DNG (D2-hRuPac cells) = assay: DNG antiviral activity, D2-hRuPac cells, Renilla luciferase; type: cell-based, Dengue fever virus; conditions: Dengue virus, secondary screening
EBOV minigenome = assay: microbe, parasite or virus in culture; type: cell-based, Ebola virus; conditions: Zaire ebolavirus; for inhibition at 25 µM: 24 h, read-out: EBOV Inh; for EC50: read-out: EBOV EC50
SINV (SR19-F-luc cells) = assay: SINV antiviral activity, SR19-F-luc cells, Firefly luciferase; type: cell-based; conditions: Sindbis virus; for inhibition at 25 µM: primary screening, 25 μM final concentration, 24 hours, percent inhibition of viral replication, read-out: SINV Inh; for EC50: secondary screening, SR19-F-luc cells

Row | SMILES | EC50 [1] [µM] | inhibition at 25 µM [1] [%] | HCV TI [1] | EC50 (RSV minigenome) [µM] | inhibition at 25 µM (RSV minigenome) [%] | RSV TI (RSV minigenome) | inhibition at 25 µM (WNV (WN-hRuPac cells)) [%] | YFV TI (YFV (YF-hRuPac cells)) | inhibition at 25 µM (YFV (YF-hRuPac cells)) [%] | EC50 (YFV (YF-hRuPac cells)) [µM] | EC50 (DNG (D2-hRuPac cells)) [µM] | inhibition at 25 µM (EBOV minigenome) [%] | EC50 (EBOV minigenome) [µM] | inhibition at 25 µM (SINV (SR19-F-luc cells)) [%] | EC50 (SINV (SR19-F-luc cells)) [µM] | CC50 (in vitro; DNG CC50) [µM] | CC50 (in vitro; EBOV CC50) [µM] | CC50 (in vitro; HCV CC50) [µM] | CC50 (in vitro; RSV CC50) [µM] | CC50 (in vitro; SINV CC50) [µM] | also measured
1 | CCc1ccccc1Nc1c2ccccc2nc2ccccc12 [Compound 2] | 8 | 154 | 0.77 | 1.3 | 99.8 | 25.33 | 49.6 | 4.95 | 71.8 | 6.65 | 21.3 | 20.1 | 38.7 | 70.2 | 19.3 | 32.9 | 32.9 | 6.12 | 32.9 | 32.9 | EC50 (WNV (WN-hRuPac cells)): 17.8 µM; WNV TI (WNV (WN-hRuPac cells)): 1.85; CC50 (in vitro; WNV CC50): 32.9 µM; CC50 (in vitro; YFV CC50): 32.9 µM
2 | CCOC(=O)c1cnc2c(C)cc(C)cc2c1NCCCN(C)C [Compound 75] | 0.75 | 122 | 14.4 | 5.79 | 92.7 | 4.04 | 79.2 | 3.13 | 69.1 | 7.48 | 6.09 | 95.1 | 7.15 | 83.8 | 11 | 23.4 | 23.4 | 10.8 | 23.4 | 23.4 | EC50 (WNV (WN-hRuPac cells)): 9 µM; WNV TI (WNV (WN-hRuPac cells)): 2.6; CC50 (in vitro; WNV CC50): 23.4 µM; CC50 (in vitro; YFV CC50): 23.4 µM
3 | c1cncc(CNc2c3ccccc3nc3ccccc23)c1 [Compound 5] | 1.76 | 211 | 5.49 | 2.8 | 98.5 | 10.2 | 89.3 | 2.57 | 84.7 | 11.1 | 3.64 | 86 | 15.3 | 29.6 | 7.02 | 28.6 | 28.6 | 9.67 | 28.6 | 28.6 | EC50 (WNV (WN-hRuPac cells)): 7.15 µM; WNV TI (WNV (WN-hRuPac cells)): 3.99; CC50 (in vitro; WNV CC50): 28.6 µM; CC50 (in vitro; YFV CC50): 28.6 µM
4 | Cc1cc(C)c2nc(C)cc(Nc3ccc(Cl)c(Cl)c3)c2c1 [Compound 53] | 4.78 | 150 | 1.74 | 3.78 | 100 | 13 | 91.9 | 7.6 | 79.9 | 6.47 | 28.7 | 75.6 | 75 | 88.1 | 6.69 | 49.1 | 49.1 | 8.3 | 49.1 | 49.1 | EC50 (WNV (WN-hRuPac cells)): 20.9 µM; WNV TI (WNV (WN-hRuPac cells)): 2.35; CC50 (in vitro; WNV CC50): 49.1 µM; CC50 (in vitro; YFV CC50): 49.1 µM
5 | CCOC(=O)c1cnc2ccc(C)cc2c1Nc1ccc(N2CCOCC2)cc1 [Compound 38] | 9.5 | 88.4 | 2 | 5.05 | 98.2 | 14.85 | 36.5 | 1.94 | 70.8 | 38.7 | ≥ 75 | -36.4 | 75 | 43.2 | ≥ 75 | ≥ 75 | ≥ 75 | 19 | ≥ 75 | ≥ 75 | CC50 (in vitro; WNV CC50): ≥ 75 µM; CC50 (in vitro; YFV CC50): ≥ 75 µM
